From PMC7037682, “Herb–Drug Interaction of Red Ginseng Extract and Ginsenoside Rc with Valsartan in Rats” (Molecules, 2020)
Read-outs that look alike come from different tables or passages of the source.

Legend:
[1] = Plasma pharmacokinetics of ginsenosides in rats after 1-week repeated RGE; conditions: for detection in rat plasma: LC-MS/MS; for maximum plasma concentration (molar): after RGE 1.5 g/kg/day po for 7 days
Method: The rats were randomly divided into the control and RGE groups. The RGE group received a RGE suspension (1.5 g/mL/kg/day, in distilled water) for 7 days via oral gavage. The control group received distilled water for 7 days via oral gavage. After 1 h following the last RGE treatment, valsartan was injected intravenously to both groups via the tail vein at 1 mg/mL/kg (dissolved in DMSO: saline = 2:8, v/v). […] After centrifugation of the blood samples at 16,000× g for 10 min, aliquots (50 μL each) of plasma samples were stored at −80 °C until the analysis of ginsenosides and valsartan.
The residue was reconstituted with 100 μL of 70% methanol consisting of 0.1% formic acid. An aliquot (20 μL) from the sample was injected into the LC-MS/MS system.
After freezing the aqueous layer at −80 °C for 2 h, the upper organic layer was transferred to a clean tube and evaporated to dryness. […] An aliquot (20 μL) from the sample was injected into the LC-MS/MS system. The samples were eluted through an Omega Polar C18 column (2.1 mm × 100 mm, 3 µm particle size) (Phenomenex, Torrance, CA, USA) using a mobile phase consisting of 0.1% formic acid in water: 0.1% formic acid in methanol (15:85, v/v) at a flow rate of 0.2 mL/min.
Pharmacokinetic parameters were calculated from plasma concentration-time profile using non-compartment analysis of WinNonlin (version 5.1; Pharsights, Cary, NC, USA). The statistical significance was assessed by t-test using Statistical Package for the Social Sciences (version 24.0; SPSS Inc., Chicago, IL, USA).

[2] = biological target: T1, OCT1 (Homo sapiens, UniProt O15245); assay: Inhibition of OCT1-mediated [3H]MPP+ uptake in HEK293-OCT1 cells
T1 sequence (O15245 1-554): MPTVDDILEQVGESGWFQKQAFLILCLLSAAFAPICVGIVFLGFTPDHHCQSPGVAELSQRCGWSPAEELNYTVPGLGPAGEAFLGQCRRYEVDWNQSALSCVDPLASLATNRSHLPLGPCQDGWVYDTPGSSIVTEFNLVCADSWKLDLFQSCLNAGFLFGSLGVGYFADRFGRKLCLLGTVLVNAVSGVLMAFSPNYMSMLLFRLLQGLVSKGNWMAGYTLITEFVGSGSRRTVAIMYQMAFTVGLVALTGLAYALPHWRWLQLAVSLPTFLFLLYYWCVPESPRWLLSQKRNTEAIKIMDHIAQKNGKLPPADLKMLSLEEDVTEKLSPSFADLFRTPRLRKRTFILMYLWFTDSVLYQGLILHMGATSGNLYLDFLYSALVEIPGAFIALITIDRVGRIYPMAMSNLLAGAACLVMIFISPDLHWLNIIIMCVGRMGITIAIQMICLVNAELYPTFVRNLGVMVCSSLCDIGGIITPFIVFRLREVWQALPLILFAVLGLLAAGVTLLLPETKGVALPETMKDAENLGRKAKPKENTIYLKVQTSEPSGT
Method: (§1) HEK293 cells overexpressing the OCT1, OCT2, OAT1, OAT3, OATP1B1, and OATP1B3 transporters (HEK293-OCT1, -OCT2, -OAT1, -OAT3, -OATP1B1, and -OATP1B3, respectively) and HEK293-mock cells (Corning Life Sciences; Woburn, MA, USA) were used and characterized as previously described.
(§2) HEK293 cells overexpressing drug transporters and HEK293-mock cells were seeded in poly-D-lysine-coated 96-well plates at a density of 10^5 cells/well and were cultured in DMEM supplemented with 10% FBS, 5 mM non-essential amino acids, and 2 mM sodium butyrate in a humidified atmosphere with 8% CO2 at 37 °C.
(§3) To examine the effects of ginsenosides and typical inhibitors on transporter activity, aliquots (100 μL) of HBSS containing the probe substrate and ginsenosides or typical inhibitors were added to the cells after aspirating pre-incubated HBSS. The concentrations and probe substrates were as follows: 0.1 μM [^3H]MPP^+ for OCT1 and OCT2, 0.1 μM [^3H]PAH for OAT1, 0.1 μM [^3H]ES for OAT3 and OATP1B1, and 0.1 μM [^3H]EG for OATP1B3. […] Then the uptake of probe substrates into HEK293-mock cells and HEK293-OCT1, -OCT2, -OAT1, -OAT3, -OATP1B1, and -OATP1B3 cells in the presence and absence of typical inhibitor or each ginsenoside with previously described concentration range was measured for 5 min. Immediately after placing the plates on ice, the cells were washed three times with 100 μL of ice-cold HBSS, followed by lysing with 50 μL of 10% SDS solution and mixing with 150 μL of Optiphase cocktail solution (Perkin Elmer Inc., Boston, MA, USA). The radioactivity of the probe substrates in the cells was determined using a liquid scintillation counter.
(§4) In the inhibition studies, the uptake rate of substrate by HEK293 cells overexpressing the respective transporters was used as the control (100%) and the uptake rate of substrates in the presence of typical inhibitors or ginsenosides expressed as a percentage of the control. The inhibition data were fitted to an inhibitory effect model using Sigma plot (version 10.0; Systat Software Inc., San Jose, CA, USA). IC50 value indicated the half-maximal inhibitory concentration of the inhibitor.

[3] = biological target: T2, OCT2 (Homo sapiens, UniProt O15244); assay: Inhibition of OCT2-mediated [3H]MPP+ uptake in HEK293-OCT2 cells
T2 sequence (O15244 1-555): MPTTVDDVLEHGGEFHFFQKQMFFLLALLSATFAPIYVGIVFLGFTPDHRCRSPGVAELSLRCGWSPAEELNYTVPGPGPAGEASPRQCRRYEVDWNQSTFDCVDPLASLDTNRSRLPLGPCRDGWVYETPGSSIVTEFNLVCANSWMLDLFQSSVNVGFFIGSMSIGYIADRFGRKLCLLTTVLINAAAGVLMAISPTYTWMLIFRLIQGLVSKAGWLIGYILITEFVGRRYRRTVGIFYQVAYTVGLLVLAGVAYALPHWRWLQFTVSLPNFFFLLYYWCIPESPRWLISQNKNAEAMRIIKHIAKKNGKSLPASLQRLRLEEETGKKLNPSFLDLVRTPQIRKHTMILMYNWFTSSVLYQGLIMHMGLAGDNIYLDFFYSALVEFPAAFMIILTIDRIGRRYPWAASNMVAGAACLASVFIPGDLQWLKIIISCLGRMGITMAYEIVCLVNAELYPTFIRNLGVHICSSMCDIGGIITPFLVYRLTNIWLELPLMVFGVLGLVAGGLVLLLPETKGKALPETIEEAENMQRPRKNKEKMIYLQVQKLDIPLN
Method: as §1, §2, §3, §4

[4] = after RGE 1.5 g/kg/day po for 1 week
[5] = read-out: IC50 OCT1, HEK293-OCT1, 0.1 μM [3H]MPP+ uptake, 5 min
[6] = read-out: IC50 OCT2, HEK293-OCT2, 0.1 μM [3H]MPP+ uptake, 5 min
[7] = rat plasma, after RGE 1.5 g/kg/day po for 1 week

Row | Structure (SMILES) | IC50 [2] [µM] | IC50 [3] [µM] | maximum plasma concentration (molar) ([1]; rat plasma) [nM] | AUC ([1]; rat, plasma, po, 1.5 g/kg/day) [ng·h/mL] | Cmax ([1]; rat, plasma, po, 1.5 g/kg/day) [ng/mL] | MRT ([1]; rat, plasma, po, 1.5 g/kg/day) [h] | Tmax ([1]; rat, plasma, po, 1.5 g/kg/day) [h] | half-life ([1]; rat, plasma, po, 1.5 g/kg/day) [h] | detection in rat plasma [1, 4] | further results
1 | CC(C)=CCC[C@](C)(O)[C@H]1CC[C@]2(C)[C@@H]1[C@H](O)C[C@@H]1[C@@]3(C)CC[C@H](O[C@@H]4O[C@H](CO)[C@@H](O)[C@H](O)[C@H]4O[C@@H]4O[C@H](CO)[C@@H](O)[C@H](O)[C@H]4O)C(C)(C)[C@@H]3CC[C@]12C [Rg3, ginsenoside Rg3] |  |  |  |  |  |  |  |  | not detected | IC50 [2, 5]: > 100 µM; IC50 [3, 6]: > 100 µM
2 | CC(C)=CCC[C@](C)(O)[C@H]1CC[C@]2(C)[C@@H]1[C@H](O)C[C@@H]1[C@@]3(C)CC[C@H](O[C@@H]4O[C@H](CO)[C@@H](O)[C@H](O)[C@H]4O)C(C)(C)[C@@H]3CC[C@]12C [Rh2, ginsenoside Rh2] | > 100 | > 100 |  |  |  |  |  |  | not detected | 
3 | CC(C)=CCC[C@](C)(O)[C@H]1CC[C@]2(C)[C@@H]1[C@H](O)C[C@@H]1[C@@]3(C)CC[C@H](O)C(C)(C)[C@@H]3[C@@H](O)C[C@]12C [PPT, protopanaxatriol] |  |  | 38.5 |  |  |  |  |  | detected | AUC ([1]; rat plasma, 0 to 48 h, after RGE 1.5 g/kg/day po for 1 week): 429.91 ± 105.75 ng·h/mL; Cmax [1, 7]: 16.97 ± 8.99 ng/mL; MRT [1, 7]: 23.12 ± 2.26 h; T1/2 [1, 7]: 46.38 ± 13.27 h; Tmax [1, 7]: 16.50 ± 12.48 h; IC50 [2, 5]: > 100 µM; IC50 [3, 6]: > 100 µM
4 | CC(C)=CCC[C@](C)(O)[C@H]1CC[C@]2(C)[C@@H]1[C@H](O)C[C@@H]1[C@@]3(C)CC[C@H](O)C(C)(C)[C@@H]3[C@@H](O[C@@H]3O[C@H](CO)[C@@H](O)[C@H](O)[C@H]3O)C[C@]12C [Rh1, ginsenoside Rh1] | > 100 | > 100 |  |  |  |  |  |  | not detected | 

Continued, in another order:

Row | IC50 [2] [µM] | IC50 [3] [µM] | maximum plasma concentration (molar) ([1]; rat plasma) [nM] | AUC ([1]; rat, plasma, po, 1.5 g/kg/day) [ng·h/mL] | Cmax ([1]; rat, plasma, po, 1.5 g/kg/day) [ng/mL] | MRT ([1]; rat, plasma, po, 1.5 g/kg/day) [h] | Tmax ([1]; rat, plasma, po, 1.5 g/kg/day) [h] | half-life ([1]; rat, plasma, po, 1.5 g/kg/day) [h] | Structure (SMILES) | detection in rat plasma [1, 4] | further results
5 | > 100 | > 100 | 9.1 | 283 ± 58.9 | 10 ± 1.04 | 18.6 ± 1.43 | 3.33 ± 1.15 | 30.2 ± 5.48 | CC(C)=CCC[C@](C)(O[C@@H]1O[C@H](CO[C@@H]2OC[C@H](O)[C@H](O)[C@H]2O)[C@@H](O)[C@H](O)[C@H]1O)[C@H]1CC[C@]2(C)[C@@H]1[C@H](O)C[C@@H]1[C@@]3(C)CC[C@H](O[C@@H]4O[C@H](CO)[C@@H](O)[C@H](O)[C@H]4O[C@@H]4O[C@H](CO)[C@@H](O)[C@H](O)[C@H]4O)C(C)(C)[C@@H]3CC[C@]12C [Rb2, ginsenoside Rb2] |  | 
6 | > 100 | > 100 |  | 455 ± 111 | 17.8 ± 2.34 | 17.1 ± 2.09 | 3.33 ± 1.15 | 16.9 ± 5.81 | CC(C)=CCC[C@](C)(O[C@@H]1O[C@H](CO[C@@H]2O[C@H](CO)[C@@H](O)[C@H](O)[C@H]2O)[C@@H](O)[C@H](O)[C@H]1O)[C@H]1CC[C@]2(C)[C@@H]1[C@H](O)C[C@@H]1[C@@]3(C)CC[C@H](O[C@@H]4O[C@H](CO)[C@@H](O)[C@H](O)[C@H]4O[C@@H]4O[C@H](CO)[C@@H](O)[C@H](O)[C@H]4O)C(C)(C)[C@@H]3CC[C@]12C [Rb1, ginsenoside Rb1] |  | 
7 | > 100 | > 100 | 10.6 | 321 ± 97.2 | 11.7 ± 2.49 | 18.4 ± 1.89 | 3.33 ± 1.15 | 24.2 ± 7.51 | CC(C)=CCC[C@](C)(O[C@@H]1O[C@H](CO[C@@H]2O[C@@H](CO)[C@H](O)[C@H]2O)[C@@H](O)[C@H](O)[C@H]1O)[C@H]1CC[C@]2(C)[C@@H]1[C@H](O)C[C@@H]1[C@@]3(C)CC[C@H](O[C@@H]4O[C@H](CO)[C@@H](O)[C@H](O)[C@H]4O[C@@H]4O[C@H](CO)[C@@H](O)[C@H](O)[C@H]4O)C(C)(C)[C@@H]3CC[C@]12C [Rc, ginsenoside Rc] |  | 
8 | > 100 | > 100 |  |  |  |  |  |  | CC(C)=CCC[C@](C)(O[C@@H]1O[C@H](CO)[C@@H](O)[C@H](O)[C@H]1O)[C@H]1CC[C@]2(C)[C@@H]1[C@H](O)C[C@@H]1[C@@]3(C)CC[C@H](O)C(C)(C)[C@@H]3[C@@H](O[C@@H]3O[C@H](CO)[C@@H](O)[C@H](O)[C@H]3O[C@@H]3O[C@@H](C)[C@H](O)[C@@H](O)[C@H]3O)C[C@]12C [Re, ginsenoside Re] | not detected | 
